In test [1] the test system is human lung cancer NCI-H1975 (EGFRL858R/T790M) cell line. Kind of test: Anti-tumor effect of azvudine with osimertinib in NCI-H1975 subcutaneous xenograft mice (Example 1). Type of test: in vivo, BALB/c nude mice. The conditions noted are these: for Tumor volume on the 28th day of grouping administration: day 28; for Tumor volume on the 28th day of grouping administration / Tumor weight: mean ± standard error; for Tumor weight / Tweight/Cweight: end of experiment; for Tumor weight: combination; for Tweight/Cweight: tumor weight of treatment group / solvent control group. From the text: Animals were kept in IVC (independent ventilation system) cages (4 per cage) in SPF grade animal room. The number of animals in the cage, gender, strain, date of receipt, administration regimen, experiment number, group and date of start of the experiment were indicated on the animal information card for each cage. All cages, bedding and drinking water were sterilized before use. Cages, feed and drinking water were changed twice a week. […] The bedding was corn cobs, and was changed twice a week. • Food: Experimental animals had free access to food (irradiation sterilized, dry pelleted food) throughout the whole experimental process. • Drinking water: Experimental animals can freely drink sterilized water. • Cage identification: The number of animals in the cage, gender, strain, date of receipt, • administration regimen, experiment number, group and date of start of the experiment should be indicated on the animal information card for each cage. • Animal identification: Experimental animals were identified with ear tags.
When the cell fusion degree of each bottle reached more than 90%, the cells were digested and resuspended in PBS. The cells were counted to reach a concentration of 5×10^7/ml by using a cell counter, and each mouse was injected with 0.1 ml of cell suspension. The 8th generation cells were inoculated subcutaneously in nude mice. When the tumor grew to about 800 mm^3, the tumor was taken out and cut into a size of 2*2*2 mm^3. The chopped tumor was inoculated on the right back of each mouse. When the average volume of the tumor measured after inoculation reached 100-120 mm^3, grouping administration was started using a random stratified grouping method according to the tumor volume and animal body weight. The lung cancer cell line model was randomly divided into 4 experimental groups with 8 mice in each group. The mice were continuously administered for 28 days after grouping.
(Ti: mean tumor volume of the treatment group on the i^th day of administration, T0: mean tumor volume of the treatment group on the 0th day of administration; Vi: mean tumor volume of the solvent control group on the i^th day of administration, V0: mean tumor volume of the solvent control group on the 0th day of administration)
At the end of the experiment, the surviving animals were euthanized, and the tumor tissue was taken, and weighed to obtain the tumor weight.

Test [2] shares this test system. Briefly: Anti-tumor effect of azvudine with doxitinib in NCI-H1975 subcutaneous xenograft mice (Example 2). The conditions noted are these: for Tumor volume / Tumor volume on the 20th day: mean ± SEM, azvudine 1 mg/kg, doxitinib […], combination 1 + […]; for Tumor volume: in mm³. Type of test: in vivo, BALB/c nude mice. From the text: Animals were kept in IVC (independent ventilation system) cages (4 per cage) in SPF grade animal room. The number of animals in the cage, gender, strain, date of receipt, administration regimen, experiment number, group and date of start of the experiment were indicated on the animal information card for each cage. All cages, bedding and drinking water were sterilized before use. Cages, feed and drinking water were changed twice a week. The breeding environment and light conditions were as follows: • Temperature: 20˜26° C. • Humidity: 40˜70% • Lighting cycle: 12 hours of light, 12 hours of no light (the light was turned on at 8 am and turned off at 8 pm) • Cage: Cages were made of polycarbonate, with a volume of 325 mm×210 mm×180 mm. The bedding was corn cobs, and was changed twice a week. • Food: Experimental animals had free access to food (irradiation sterilized, dry pelleted food) throughout the whole experimental process. • Drinking water: Experimental animals can freely drink sterilized water. • Cage identification: The number of animals in the cage, gender, strain, date of receipt, • administration regimen, experiment number, group and date of start of the experiment should be indicated on the animal information card for each cage. • Animal identification: Experimental animals were identified with ear tags.
NCI-H1975 cells were cultured in RPMI 1640 medium containing 10% fetal bovine serum in a 37° C. and 5% CO2 incubator. The cells were routinely passaged once a week. When the cell saturation reached 80%-90% and the number achieved the requirement, the cells were collected, counted and inoculated.
0.1 mL (5×10^6) of NCI-H1975 cells were subcutaneously inoculated on the right back of each mouse, and the grouping administration was started when the average tumor volume reached about 154 mm 3.
The experimental index was to investigate whether tumor growth was inhibited, delayed or cured. Tumor diameter was measured with a vernier caliper twice a week or every other day. The tumor volume was calculated according to the formula of: V=0.5a×b^2, where a and b represented the long diameter and short diameter of the tumor, respectively.
The anti-tumor efficacy of the compounds was evaluated by TGI (%) or relative tumor proliferation rate T/C (%). TGI (%) reflected the inhibition rate of tumor growth.
Relative tumor proliferation rate T/C (%) was calculated according to the formula as follows: T/C %=TRTV/CRTV×100% (TRTV represented the average RTV of the treatment group; CRTV Represented the Average RTV of the Negative Control Group). Relative Tumor Volume (RTV) was calculated based on the results of measurement of tumor according to the formula of RTV=Vt/V0, where V0 represented the tumor volume measured during grouping administration (i.e. d0), and Vt represented the tumor volume obtained in a certain measurement, and TRTV and CRTV were collected from the data on the same day.
Statistical analysis included mean and standard error (SEM) of tumor volume at each time point for each group (see Table 3 for specific data). […] The comparison between two groups was analyzed by T-test, and the comparison between three or more groups was analyzed by one-way ANOVA. All data analysis was performed with Prism. p<0.05 was considered significant difference.

Where [3] appears, read: azvudine 1 mpk, osimertinib 2.5 mpk, combination 2.5 + 1 mpk.
[4] abbreviates: azvudine 1 mpk, osimertinib 2.5 mpk.
Where [5] appears, read: based on tumor volume on the 20th day after administration.

What is called TGI is how far tumour growth fell short of that in controls. Lower therefore signals little slowing of growth. In the case of `[N-]=[N+]=N[C@]1(CO)O[C@@H](n2ccc(N)nc2=O)[C@@H](F)[C@@H]1O` [Azvudine, azvudine], the “Effect on tumor proliferation (in words)” value in test [1] (NCI-H1975 tumor-bearing mouse model) was “inhibitory effect on tumor proliferation in a dose-dependent manner”. The “TGITV (tumor volume inhibition rate)” value is on record as 35.7% in test [1] (after 28 days of administration, azvudine 1 mpk, osimertinib 2.5 mpk, combination 2.5 + 1 mpk) and 35.7% in test [1] (after 28 days of administration, azvudine 1 mpk, osimertinib 2.5 mpk, combination 2.5 + 1 mpk, listed as azvudine). In test [1] (setting [3]), the “Tumor volume on the 28th day of grouping administration” value amounted to 628.3 ± 165.4 mm^3. The Tumor weight in test [1] (setting [4]) is on record as 879.3 ± 226.9 mg. In test [1], this molecule returned a Tweight/Cweight of 49.5%. Besides, in test [2] (NCI-H1975 xenograft tumor mouse model), the “Effect on tumor growth (in words)” value is “inhibitory effect on tumor growth in a dose-dependent manner”. This molecule also had a TGI in test [2] (setting [5]) of 54.01%. For the same molecule, the Tumor volume is 154 ± 11 in test [2] (day 0 after administration); 252 ± 25 in test [2] (day 3 after administration); 447 ± 46 in test [2] (day 6 after administration); 614 ± 78 in test [2] (day 10 after administration); 774 ± 106 in test [2] (day 13 after administration); 1,102 ± 118 in test [2] (day 17 after administration). In addition, the figures for the Tumor volume in test [2] (day 20 after administration) and in test [2] (day 24 after administration) were 1,396 ± 162 and 2,382 ± 305, respectively. Moreover, the “Tumor volume on the 20th day” value in test [2] (day 20 after administration) is 1,396 ± 162 mm3.

`C=CC(=O)Nc1cc(Nc2nccc(-c3cn(C)c4ccccc34)n2)c(OC)cc1N(C)CCN(C)C` [Osimertinib, osimertinib]: the “Tumor volume on the 28th day of grouping administration” value in test [1] (setting [3]) is 377.9 ± 90.8 mm^3. Further, in test [1] (setting [4]), the Tumor weight was found to be 716.9 ± 207.4 mg. For the same molecule, the Tweight/Cweight in test [1] is recorded as 40.3%. In test [1] (mouse, in vivo), the “TGITV (tumor volume inhibition rate)” value turned out to be 66.4%.

In the case of doxitinib, the “T/C (relative tumor proliferation rate)” value in test [2] (setting [5]) stood at 15.77%. Further, the TGI in test [2] (setting [5]) is recorded as 87.50%. Also, the Tumor volume in test [2] (day 0 after administration) amounted to 154 ± 12; in test [2] (day 3 after administration), 180 ± 19; in test [2] (day 6 after administration), 232 ± 27; in test [2] (day 10 after administration), 277 ± 34; in test [2] (day 13 after administration), 350 ± 65; in test [2] (day 17 after administration), 395 ± 86. Further, the Tumor volume worked out at 492 ± 109 in test [2] (day 20 after administration) and 802 ± 220 in test [2] (day 24 after administration). Further, the “Tumor volume on the 20th day” value in test [2] (day 20 after administration) was determined as 492 ± 109 mm3.

Values taken from patent publication US11878028B1 (HENAN GENUINE BIOTECH CO., LTD., priority 2023, dated 2024).
